In patent publication US20020049157A1, “Use of proteasome inhibitors for treating cancer, inflammation, autoimmune disease, graft rejection and septic shock” (priority 1998, published 2002):

Assays:
[1] = test system: CDK4; experiment: Immunoprecipitation kinase assay, CDK4; format: cell-based, human; conditions: PHA-activated T cells; LAC 10 μM added once at 0 h; examined at 16 h and 40 h
Procedure: Tonsillar T cells were activated with PHA (2 μg/ml) for a period as indicated in each graph. LAC (10 μM) was added once at 0 h. The cells were harvested at 16 h, 24 h, or 40 h as indicated. An equal amount of lysate protein ([…]) was precipitated with rabbit anti-CDK4, anti-CDK2 or anti-Cyclin E antisera (2.5 μg Ab/sample). The immune complexes were assayed for their kinase activities using histone H1 as a substrate. (A) CDK4 kinase activity. (B) CDK2 kinase activity. (C) Cyclin E-associated CDK activity. The membrane in (C) was subsequently hybridized with anti-Cyclin E (1 μg/ml) followed by ^125I-protein A for the evaluation of the protein level of Cyclin E.
This was in agreement with the critical role of CDK4 in the early […].
Lymphocytes were lysed by a lysis buffer as used in the immunoblotting (Chen et al., 1996, supra), and cleared lysates were quantitated for their protein content. For immunoprecipitation, 50 μl of rabbit antisera against CDK2, CDK4 or Cyclin E were added to the lysates equivalent to 20 or 40 μg protein depending on the experiment. After 2 h incubation at 4° C., the immune complexes were recovered by protein A-conjugated Sepharose (Pharmacia Biotech, Montreal, Quebec, Canada). […] The proteins were then transferred to PVDF membranes and the signals were detected by autoradiography.

[2] = test system: Jurkat cells; experiment: Respiration (O2 consumption) of Jurkat cells, oxygen electrode; format: cell-based
Excerpt: The function of Complex I of digitonin (Dig)-permeated Jurkat cells was blocked by rotenone (Rot), and the respiration was resumed by adding succinate (Suc), which provides electrons to Complex II directly and thus bypasses Complex I. The maximal respiration was achieved by adding CCCP (carbonyl cyanide m-chlorophenylhydrazone), which uncouples the oxidation and phosphorylation. The respiration could be blocked by antimycin A (Ant), which inhibits […]. Curves 1 and 6 represent positive controls of rat kidney mitochondria. Curves 2 and 5 represent normals untreated Jurkat cells. Curves 3 and 4 represent Jurkat cells treated with lactacystin (6 μM) for 2 h and 4 h, respectively.
Complex III in the respiration chain was blocked at Complex III antimycin (Ant), and the electron flow was resumed by addiind ascorbate (Asc) and TMPD (tetramethyl-p-phenyl-enediamine).
The assay system is identical to that described in FIG. 16. Jurkat cells were treated with LAC for 4 h (curve 3). The decoupling reagent used in this experiment to achieve maximal respiration is FCCP (carbonylcyanide-p-trifluoromethoxyphenylhydrazone).
The Jurkat Cells (JC) (30×10^6/ml) or rat kidney proximal tubules mitochondria (RKM) (0.5 mg of protein/ml) were incubated in 1 ml measuring chamber at 37° C. in a respiration buffer containing 200 mM sucrose, 5 mM MgCl2, 5 mM KH2PO4, and 30 mM HEPES-Tris (pH 7.5). During respiration experiments following substrates and inhibitors were used: 0.005% Digitonine (Dig); 10 mM Succinate (Suc); 1 mM Ascorbate (Asc); 0.4 mM tetramethyl-p- phenylenediamine (TMPD); 1 μM CCCP, 1 μM FCCP; 0.1 μM Rotenone (Rot); 50 nM Antimycin A (Anti); 1 mM KCN; 100 μM Cytochrome C (Cyt C). The respiration rate of the Jurkat Cells and mitochondria was measured polarographically with a Clarke oxygen electrode (Yellow Springs Instruments, Yellow Springs, Ohio, U.S.A.) using 1 ml thermojacketed chamber. Oxygen concentration was calibrated with air-saturated buffer using Hypoxanthine—Xanthine Oxidase—Catalase system (“chemical zero”). Oxygen consumption was continuously recorded using a “MacLab/8” (Analog Digital Instruments, U.S.A.) connected to a Macintosh SE computer and the MacLab Chart v.3.3.4 software. Rates of oxygen consumption are expressed as ng-atoms of oxygen/min.

[3] = test system: Bik; experiment: Immunoblotting of Bik in mitochondrial fraction of Jurkat cells; format: cell-based; conditions: lactacystin 6 μM
Procedure: Jurkat cells were treated with lactacystin (6 μM) for 5 h (lanes 2 and 4 of panel […]) or 7 h (lane 3 of panel B), lane 1 in panels A and B is untreated control samples. The cells were separated into mitochondrial (mito in panel A and mitochondria in panel B) and cytosolic (cytosol in panel A) fractions, and the lysate of these two fractions analyzed by immunoblotting using goat anti-Bik, and rabbit anti-Bax, Bak and Bad Ab (all from Santa Cruz Biotech, Santa Cruz, Calif.) followed by enhanced chemiluminescence (ECL, kit from Amersham). […] Jurkat cells, wild type Namalwa cells and Bcl-xL transfected Namalwa cells were treated with medium (lanes 1), staurosporine (0.3 μM, lanes 2) and lactacystin (6 μM, lanes 3) for 6 H. The proteins from the mitochondrial fraction of these cells were analyzed by immunoblotting and the amount of Bik, Bcl-xL, Bax, and Bak evaluated. The same membranes were used sequentially and probed with different antibodies against these factors. A nonspecific band recognized by a monoclonal antibody against cytochrome […] (COX) was used as control for even sample loading in the lanes.

[4] = test system: Bik; experiment: Immunoblotting of Bik in wild type Namalwa cells; format: cell-based, human; conditions: 6 h; lactacystin 6 μM, staurosporine 0.3 μM
Procedure: Jurkat cells, wild type Namalwa cells and Bcl-xL transfected Namalwa cells were treated with medium (lanes 1), staurosporine (0.3 μM, lanes 2) and lactacystin (6 μM, lanes 3) for 6 H. The proteins from the mitochondrial fraction of these cells were analyzed by immunoblotting and the amount of Bik, Bcl-xL, Bax, and Bak evaluated. The same membranes were used sequentially and probed with different antibodies against these factors. A nonspecific band recognized by a monoclonal antibody against cytochrome […] (COX) was used as control for even sample loading in the lanes.

[5] = test system: calpain, cathepsin B, chymotrypsin, trypsin, and papain; conditions: cited from earlier work

CDK4 kinase activity [1]: did not affect the CDK4 activity
Compound: CC(=O)N[C@@H](CSC(=O)[C@]1([C@@H](O)C(C)C)NC(=O)[C@H](C)[C@@H]1O)C(=O)O [LAC, lactacystin]
respiration after Complex I blockage (rotenone) on adding succinate ([2]; LAC 6 μM for 4 h): could not be resumed by adding succinate
O2 consumption after Complex III (ascorbate and TMPD) ([2]; LAC for 4 h): could not be resumed by ascorbate and TMPD
O2 consumption after the addition of ascorbate and TMPD ([2]; LAC for 4 h, FCCP as decoupling reagent): reduced augmentation of O2 consumption
electron transport of the respiratory chain ([2]; within 4 h): reduce the electron transport at the complex IV
accumulation of Bik in Jurkat cells ([3]; 6 h, staurosporine 0.3 μM): accumulates
amount of Bik ([3]; 4 h, 5 h and 7 h): demonstable increase
accumulation of Bik in Namalwa cells [4]: accumulates
effect on other proteases [5]: does not affect
